From US8715678B2, “Method for inhibiting the formation of SET1 family core complexes” (Syracuse University, priority 2008, dated 2014)
Ends that are not written are not given here.

Tests used:
[1] = tested on: mouse embryonic carcinoma cell nuclei; test: Fluorescence localization and nuclear phenotype in mouse embryonic carcinoma cells; type: cell-based
[2] = tested on: MLL1-dependent Hox genes (e.g. Hoxc8 and Hoxa9); test: Expression of MLL1-dependent Hox genes in HEK293T cells; type: cell-based; conditions: 20 micrograms per milliliter, 24 hours
From the text: In another embodiment, an inhibitor peptide with a cell penetration sequence is used to treat MLL1-associated leukemia. […] The addition of the inhibitor peptides disclosed herein can help control the degree of upregulation and thereby serve as a treatment for leukemia. Experiments have shown the degree of expression of MLL1-dependent Hox genes (e.g. Hoxc8 and Hoxa9) are decreased in the presence of inhibitor peptide SEQ ID NO. 34 in HEK293T cells treated with 20 micrograms per milliliter of the inhibitor peptide for 24 hours.

[3] = tested on: H3K4 trimethylation / H3K27 trimethylation of H3; test: Western blot of H3K4 trimethylation to H3K27 trimethylation ratio in HEK293T cells; type: cell-based; conditions: 20 micrograms per milliliter, 24 hours, normalized to total histone H3
Protocol: HEK293T cells were treated with 20 micrograms per milliliter of the inhibitor peptide (SEQ ID NO. 34) for 24 hours and immune-blotted using antibodies specific for H3K4 trimethylation, H3K27 trimethylation, and histone H3 (to provide for normalization). Western blots were quantified based on band intensity using image analysis software and normalized as a function of total histone H3. Tubulin was used as a loading control and its level remained constant between the two samples.

WDR5 = molecular target: T1, WDR5 (Homo sapiens, UniProt P61964); test: Binding of N-acetylated three residue peptide (method not given); conditions: acetylated on the N-terminus
T1 construct: pMCGS7 plasmids encoding full-length WDR5 as N-terminal His6 fusions were obtained; His6 (N); made in house; host or cells: Escherichia coli (Rosetta II, Novagen)

Substance | localization of fluorescent signature ([1]; mouse embryonic carcinoma cells) | effect on metaphase cells and nuclear shape ([1]; within 48 hours of treatment) | degree of expression of MLL1-dependent Hox genes (Hoxc8 and Hoxa9) [2] | ratio of H3K4 trimethylation to H3K27 trimethylation [3] | binding of three residue peptide (WDR5)
Ac-VNPTGCARSEPK-Ahx-K(FTIC)-GRKKRRQRRRAP-CONH2 [SEQ ID NO. 34] | rapidly localized to eurchromatic regions of mouse embryonic carcinoma cell nuclei | metaphase cells are absent and many cell nuclei have adopted altered shapes | decreased | lowering of the ratio of H3K4 to H3K27 | –
acART (Ac-Ala-Arg-Thr) [three residue peptide (ARX2)] | – | – | – | – | capable of binding
